pIC50: −log10 of the molar value.
Assay: Cytotoxicity against human HepG2(2.2.15) cells
Assay type: functional, cell-based

**Q.** With `C=C[C@@]1(C)CCC=C(C[C@H](C)OC(=O)c2cc3c(c4c2c([N+](=O)[O-])cc2c(OC)cccc24)OCO3)[C@H]1C(=C)C=O` [ARISTOPHYLLIDE A] as the compound, how does the pIC50 read?
**A.** 5.29

**Q.** With `C=C[C@@]1(C)CCC=C(C[C@@H](C)OC(=O)c2cc3c(c4c2c([N+](=O)[O-])cc2c(OC)cccc24)OCO3)[C@@H]1C(=C)C=O` [ARISTOPHYLLIDE B] as the compound, how does the pIC50 read?
**A.** 5.03

**Q.** With `C=C[C@@]1(C)CCC=C(C[C@H](C)OC(=O)c2cc3c(c4c2c([N+](=O)[O-])cc2ccccc24)OCO3)[C@H]1C(=C)C=O` [ARISTOPHYLLIDE C] as the compound, how does the pIC50 read?
**A.** 5.21

**Q.** With `C=C[C@@]1(C)CCC=C(C[C@@H](C)OC(=O)c2cc3c(c4c2c([N+](=O)[O-])cc2ccccc24)OCO3)[C@@H]1C(=C)C=O` [ARISTOPHYLLIDE D] as the compound, how does the pIC50 read?
**A.** 4.88

— ChEMBL document CHEMBL1157272, “Four aristolochic acid esters of rearranged ent-elemane sesquiterpenes from aristolochia heterophylla” (J Nat Prod, 1999)
